Experimental findings from patent US20060194819A1, “Activation specific inhibitors of nf-kb and method of treating inflammatory processes in cardio-vascular diseases” (PROCORDE GMBH, priority 2003, published 2006) are described below.

pIC50: −log10 of the molar value.

Assay [1] addresses T1, IKK-complex (Homo sapiens, UniProt O14920+O15111+Q9Y6K9).
T1 construct: IKK-complex was immunoprecipitated with anti-NEMO-antibody; endogenous in cells; host or cells: HeLa
Description: Cellular IKK kinase assay: HeLa cells treated with compound, TNF alpha stimulation, IKK-complex immunoprecipitated with anti-NEMO-antibody, I kappaB peptide phosphorylation by alpha screen. The class given is cell-based. How it is done: Kinase Assay Protocol: HeLa cells were maintained in Dulbecco's modified Eagle's medium (Invitrogen) supplemented with 10% fetal bovine serum, 2 mM L-glutamine, penicillin (50 units/ml) and streptomycin (50 μg/ml). 24 h before treatment with different compounds HeLa cells were plated at a density of 5×10^6 per well in 100-mm cell culture dishes to 90% confluences.
The cells were incubated with different drugs at the concentration indicated for 1 h, washed twice with PBS and stimulated with 20 ng/ml TNF alpha (Roche). After 7 min the cells were washed twice with ice cold PBS followed by scraping and transferring into a 1.5 ml microcentrifuge tube. After centrifugation by 2000 rpm for 2 min by 4° C. the PBS supernatant was removed and 200 μl Lyse-buffer (10 mM Hepes, pH 7.9, 0.1% NP40, 10 mM, 300 mM Sucrose, 10 mM KCl, 15 mM MgCl2, 1 mM DTT, 0.5 mM PMSF and antipain, aprotinin, leupeptin each 0.75 μg/ml (Sigma) was added to the pellet. The resuspended pellet was incubated on ice for 5 min and centrifuged at 13000 g for 30 s. The supernatant, cytosolic extract, was added to 200 μl TNT-buffer (200 mM NaCl, 20 mM Tris/HCl pH 7.5, 1% Triton X-100). Unspecific binding was blocked by incubation with 3 μg of normal rabbit IgG (Sigma) and 6 mg resuspended and prewashed Protein A Sepharose CI-4B (Pharmacia Biotech) for 30 min by 4° C. followed by immunoprecipitation for 1.5 h at 4° C. with 2 μg of anti-NEMO-antibody (Santa Cruz Biotechnology) and 6 mg resuspented and prewashed Protein A Sepharose CI-4B (Parmacia Biotech). […] 6.6 μl of detection-buffer (20 mM Hepes pH 7.5, 100 mM NaCl, 1% Tween, 0.1 mM BSA, 50 μg/ml Protein A-Acceptor beads, 250 μg/ml Streptavidin-Donor beads (both Perkin-Elmer), 4 nM anti-phospho-IKB antibody (Santa Cruz Biotechnology) was dispensed to each well. After incubation for 1.5 h the plate was measured by alpha screen reader (Perkin Elmer). […]
(Alpha assays give light when donor and acceptor beads are brought close together.)

The test system of assay [2] is I KappaB alpha phosphorylation. The assay can be described thus: P-IkBalpha detection in Western blot of HeLa cell lysates after TNF alpha stimulation. It counts as cell-based. As to conditions: HeLa cells, 10 and 100 μM. How it is done: P-IkBα Detektion in Western-Blot Protocol: HeLa cells were maintained in Dulbecco's modified Eagle's medium (Invitrogen) supplemented with 10% fetal bovine serum, 2 mM L-glutamine, penicillin (50 units/ml) and streptomycin (50 μg/ml). 24 h before treatment with different compounds HeLa cells were plated at a density of 5×10^6 per well in 100-mm cell culture dishes to 90% confluences.
The cells were incubated with different drugs at the concentration indicated for 1 h, washed twice with PBS and stimulated with 20 ng/ml TNF alpha (Roche). After 7 min the cells were washed twice with ice cold PBS followed by scraping and transferring into a 1.5 ml micro centrifuge tube. After centrifugation by 2000 rpm for 2 min by 4° C. the PBS supernatant was removed and 200 μl lysis-buffer (10 mM Hepes, pH 7.9, 0.1% NP40, 10 mM, 300 mM Sucrose, 10 mM KCl, 15 mM MgCl2, 1 mM DTT, 0.5 mM PMSF and antipain, aprotinin, leupeptin each 0.75 μg/ml (Sigma) was added to the pellet. The resuspended pellet was incubated on ice for 5 min and centrifuged at 13000 g for 30 s. 30 μl of the supernatant, cytosolic extract, was diluted with Laemmli-buffer (2% SDS, 2% 2-Mercaptoethanol, 0.01% Bromophenol blue, 8% Glycerine), heated by 60° C. for 10 min and loaded to a 4-20% polyacrylamid gels (BioRad). After electrophoresis the proteins were transferred to a nitrocellulose membrane using the wet blotting technique. First the membrane was blocked with Roti-Block (Roth) and afterwards incubated with monoclonal antibodies against P-IkBalpha (Santa Cruz Biotechnology, used at 1:200 dilution). This incubation was followed by the appropriate horseradish peroxidase-conjugated secondary antibody (Dianova) at 1:10000 dilution. Antibody binding was visualized on x-ray film using the Western blot Chemiluminescent Reagent Detection Kit (Santa Cruz).
For orientation: A western blot detects proteins with antibodies after separation by electrophoresis.

T1 sequence (O14920 whole entry): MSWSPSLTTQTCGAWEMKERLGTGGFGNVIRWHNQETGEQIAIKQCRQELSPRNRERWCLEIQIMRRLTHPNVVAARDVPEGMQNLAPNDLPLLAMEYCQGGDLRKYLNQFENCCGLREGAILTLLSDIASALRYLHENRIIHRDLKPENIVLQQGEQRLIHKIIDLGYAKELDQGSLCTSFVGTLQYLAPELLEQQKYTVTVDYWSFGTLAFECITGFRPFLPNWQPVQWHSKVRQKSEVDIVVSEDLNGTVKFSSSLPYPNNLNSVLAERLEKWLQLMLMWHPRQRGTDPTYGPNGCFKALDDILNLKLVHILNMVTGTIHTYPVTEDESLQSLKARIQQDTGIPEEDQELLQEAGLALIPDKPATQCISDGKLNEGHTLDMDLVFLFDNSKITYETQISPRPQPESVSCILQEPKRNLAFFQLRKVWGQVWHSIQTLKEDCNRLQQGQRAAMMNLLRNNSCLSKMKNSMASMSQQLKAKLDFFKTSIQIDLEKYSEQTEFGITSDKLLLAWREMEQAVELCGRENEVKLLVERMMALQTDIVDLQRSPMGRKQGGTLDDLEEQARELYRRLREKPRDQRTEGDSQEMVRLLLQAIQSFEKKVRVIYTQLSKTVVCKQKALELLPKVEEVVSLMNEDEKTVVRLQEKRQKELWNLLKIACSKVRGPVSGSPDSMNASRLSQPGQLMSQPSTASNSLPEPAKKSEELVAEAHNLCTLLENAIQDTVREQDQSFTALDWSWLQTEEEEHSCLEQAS
T1 sequence (O15111 whole entry): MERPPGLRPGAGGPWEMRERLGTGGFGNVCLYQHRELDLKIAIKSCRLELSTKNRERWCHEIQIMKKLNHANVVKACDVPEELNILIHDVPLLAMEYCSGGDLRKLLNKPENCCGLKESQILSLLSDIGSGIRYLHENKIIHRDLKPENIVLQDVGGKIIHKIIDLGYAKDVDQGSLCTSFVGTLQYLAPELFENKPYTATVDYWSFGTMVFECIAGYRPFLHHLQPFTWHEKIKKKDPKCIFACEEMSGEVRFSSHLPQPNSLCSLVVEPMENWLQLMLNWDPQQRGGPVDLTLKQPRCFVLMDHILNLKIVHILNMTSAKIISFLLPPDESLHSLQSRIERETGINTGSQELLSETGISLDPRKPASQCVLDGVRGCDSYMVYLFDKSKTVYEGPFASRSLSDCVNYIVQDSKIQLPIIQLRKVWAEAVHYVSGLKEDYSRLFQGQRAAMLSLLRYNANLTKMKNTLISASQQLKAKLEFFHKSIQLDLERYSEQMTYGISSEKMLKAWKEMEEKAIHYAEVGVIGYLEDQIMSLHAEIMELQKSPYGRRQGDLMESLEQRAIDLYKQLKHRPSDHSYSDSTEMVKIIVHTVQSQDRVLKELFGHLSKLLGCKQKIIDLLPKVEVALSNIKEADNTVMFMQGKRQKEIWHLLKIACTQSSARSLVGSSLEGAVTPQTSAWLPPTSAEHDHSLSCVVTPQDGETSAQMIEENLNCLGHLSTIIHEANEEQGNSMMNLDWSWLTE
T1 sequence (Q9Y6K9 whole entry): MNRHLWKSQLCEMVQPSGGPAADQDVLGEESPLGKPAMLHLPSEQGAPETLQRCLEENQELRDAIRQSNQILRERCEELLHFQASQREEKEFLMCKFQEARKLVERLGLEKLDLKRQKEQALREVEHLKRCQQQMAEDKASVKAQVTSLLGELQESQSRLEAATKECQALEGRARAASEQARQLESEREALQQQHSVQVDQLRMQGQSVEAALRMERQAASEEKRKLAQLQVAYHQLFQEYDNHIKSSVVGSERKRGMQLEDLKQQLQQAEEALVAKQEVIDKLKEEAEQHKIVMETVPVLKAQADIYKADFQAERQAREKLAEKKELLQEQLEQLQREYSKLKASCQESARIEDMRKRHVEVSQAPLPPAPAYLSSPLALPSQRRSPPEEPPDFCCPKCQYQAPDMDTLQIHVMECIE

One may read the pIC50 as −log10 of the IC50, conventionally taken in molar units. `CCOC(=O)C1=C(C)N=c2s/c(=C/c3ccc(-c4cccc(C(=O)O)c4)o3)c(=O)n2C1c1ccc(Cl)cc1` (stereo not drawn) [COM 56, 2-[5-(3-Carboxyphenyl)-furan-2-ylmethylene]-5-(4-chlorophenyl)-7-methyl-3-oxo-2,3-dihydro-5H-thiazolo[3,2-a]pyrimidine-6-carboxylic acid ethyl ester]: in assay [1] (HeLa cells, TNF alpha 20 ng/ml, alpha screen, n=4, read-out: IC50 for inhibition of IKK activity (phosphorylation of substrate peptide for I KappaB)), the pIC50 is around 6.07. In assay [1] (cellular assay with HeLa cells), the “potency to inhibit the IKK activity, higher than the other 73 family members” value is recorded as 10 times. The “effect on IkappaB phosphorylation (Western blot), comparison of COM 73 and COM 54 family” value in assay [2] is listed as “concentration-dependently inhibited”.
